From patent US8633206B2, “Pyrrolo[2,3-D]pyrimidine compounds” (Pfizer Inc., priority 2009, dated 2014) come the findings set out here.

Structures are written as SMILES.

In general, IC50 refers to the concentration at which inhibition is half-maximal.

Holding throughout (assay type): biochemical
Test [1] has as its target JAK2 (Homo sapiens (Human), UniProt O60674). Description: JAK enzymatic assay (peptide mobility shift), JAK2. The following applies: recombinant JAK2 2 nM, JAKtide peptide, 150 minutes. The text has this:
Recombinant JAK1 (Catalog Number PV4775), JAK2 (Catalog Number PV4210) and JAK3 (Catalog Number PV3855) were purchased from (Invitrogen Corporation, Madison, Wis.). Tyk2 (His-Tyk2 (888-1182, C936S, C1142S)) used in this study was expressed and purified at Pfizer Laboratories. Adenosine 5′-triphosphate (ATP) was obtained from (Sigma Chemical Company, St. Louis, Mo.). […] Coating Reagent 3 was purchased from (Caliper Life Sciences, Hopkinton, Mass.).
A peptide mobility shift assay was used to quantify the phosphorylation of the JAKtide (JAK2 and JAK3) or the IRS-1 peptide (JAK1 and Tyk2). Reactions were carried out in a 384-well plate (Matrical MP-101) in a 10 L total volume. […] Compounds were diluted serially in 100% dimethyl sulfoxide and tested in an 11 point dose response in duplicate or quadruplicate (200 nl of compound/DMSO was added per 10 L reaction). The reactions were initiated by the addition of enzyme to the final concentration of 2 nM JAK2, 1 nM JAK3, 12 nM Tyk2 or 20 nM JAK1. The assay was run for 240 minutes for JAK1, 150 minutes for JAK2, 90 minutes for JAK3 and 70 minutes for Tyk2. The assays were stopped at the specified times with 20 uL of 140 mM HEPES, 22.5 mM EDTA and 0.15% Coating Reagent 3. The plates were placed on a LabChip 3000 (LC3000) instrument from (Caliper Life Sciences) to measure the formation of phosphorylated peptide. Data was analyzed using Hits Well Analyzer Software from (Caliper Life Sciences) to obtain the amount of product formed.
(§1) Data was then imported into an internal application where each data point is expressed as % inhibition based on uninhibited and no enzyme controls. Dose-response data is then fit using a 4 parameter logistic equation (Equation 1) to determine an IC50.

In test [2] the target is JAK1 (Homo sapiens (Human), UniProt P23458). The test is described as follows: JAK enzymatic assay (peptide mobility shift), JAK1. Conditions: recombinant JAK1 20 nM, IRS-1 peptide, 240 minutes. The procedure:
(§2) Recombinant JAK1 (Catalog Number PV4775), JAK2 (Catalog Number PV4210) and JAK3 (Catalog Number PV3855) were purchased from (Invitrogen Corporation, Madison, Wis.). […] Adenosine 5′-triphosphate (ATP) was obtained from (Sigma Chemical Company, St. Louis, Mo.). […] Coating Reagent 3 was purchased from (Caliper Life Sciences, Hopkinton, Mass.).
(§3) Compounds were diluted serially in 100% dimethyl sulfoxide and tested in an 11 point dose response in duplicate or quadruplicate (200 nl of compound/DMSO was added per 10 L reaction). […] The assay was run for 240 minutes for JAK1, 150 minutes for JAK2, 90 minutes for JAK3 and 70 minutes for Tyk2. […] The plates were placed on a LabChip 3000 (LC3000) instrument from (Caliper Life Sciences) to measure the formation of phosphorylated peptide. Data was analyzed using Hits Well Analyzer Software from (Caliper Life Sciences) to obtain the amount of product formed.
as §1

Test [3] addresses JAK3 (Homo sapiens (Human), UniProt P52333). Description: JAK enzymatic assay (peptide mobility shift), JAK3. The following applies: recombinant JAK3 1 nM, JAKtide peptide, 90 minutes. The procedure:
as §2, §3, §1

Sequence of JAK1 (P23458 whole entry): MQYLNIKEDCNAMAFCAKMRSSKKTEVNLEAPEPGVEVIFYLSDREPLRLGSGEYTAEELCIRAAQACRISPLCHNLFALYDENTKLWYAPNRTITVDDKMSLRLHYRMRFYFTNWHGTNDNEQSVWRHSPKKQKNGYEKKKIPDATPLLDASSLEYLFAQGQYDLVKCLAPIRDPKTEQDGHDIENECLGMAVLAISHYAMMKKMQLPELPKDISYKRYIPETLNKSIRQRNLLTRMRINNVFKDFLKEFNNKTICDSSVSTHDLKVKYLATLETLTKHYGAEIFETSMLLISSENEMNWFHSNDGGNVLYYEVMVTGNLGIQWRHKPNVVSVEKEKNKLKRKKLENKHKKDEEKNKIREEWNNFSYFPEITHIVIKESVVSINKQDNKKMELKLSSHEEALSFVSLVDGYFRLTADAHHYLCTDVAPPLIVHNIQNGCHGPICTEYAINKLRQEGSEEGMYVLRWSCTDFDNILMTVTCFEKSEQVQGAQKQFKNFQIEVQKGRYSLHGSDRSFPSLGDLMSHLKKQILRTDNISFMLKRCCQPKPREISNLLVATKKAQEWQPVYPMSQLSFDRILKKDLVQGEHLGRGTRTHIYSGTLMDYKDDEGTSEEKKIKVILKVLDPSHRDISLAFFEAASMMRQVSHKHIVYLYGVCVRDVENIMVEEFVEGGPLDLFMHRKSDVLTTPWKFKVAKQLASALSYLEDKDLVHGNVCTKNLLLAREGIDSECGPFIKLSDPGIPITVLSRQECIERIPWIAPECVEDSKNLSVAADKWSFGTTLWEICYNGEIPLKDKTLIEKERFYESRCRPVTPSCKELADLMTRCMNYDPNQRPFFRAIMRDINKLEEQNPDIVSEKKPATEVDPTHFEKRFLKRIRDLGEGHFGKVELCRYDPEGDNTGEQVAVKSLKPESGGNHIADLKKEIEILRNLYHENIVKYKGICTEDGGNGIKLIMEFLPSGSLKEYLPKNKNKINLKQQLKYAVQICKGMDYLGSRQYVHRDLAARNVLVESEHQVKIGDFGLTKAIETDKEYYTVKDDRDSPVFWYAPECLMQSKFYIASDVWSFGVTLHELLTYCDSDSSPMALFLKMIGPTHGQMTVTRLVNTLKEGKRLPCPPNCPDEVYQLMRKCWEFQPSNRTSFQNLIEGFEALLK
Sequence of JAK2 (O60674 808-1132): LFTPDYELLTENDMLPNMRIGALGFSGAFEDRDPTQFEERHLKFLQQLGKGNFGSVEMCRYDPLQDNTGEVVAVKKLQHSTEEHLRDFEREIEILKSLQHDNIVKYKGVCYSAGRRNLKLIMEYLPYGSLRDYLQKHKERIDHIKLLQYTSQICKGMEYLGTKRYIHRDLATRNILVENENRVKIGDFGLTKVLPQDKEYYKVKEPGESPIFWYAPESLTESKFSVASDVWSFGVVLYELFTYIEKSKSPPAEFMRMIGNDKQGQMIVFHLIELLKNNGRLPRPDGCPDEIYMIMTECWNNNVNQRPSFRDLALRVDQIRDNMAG
Sequence of JAK3 (P52333 781-1124): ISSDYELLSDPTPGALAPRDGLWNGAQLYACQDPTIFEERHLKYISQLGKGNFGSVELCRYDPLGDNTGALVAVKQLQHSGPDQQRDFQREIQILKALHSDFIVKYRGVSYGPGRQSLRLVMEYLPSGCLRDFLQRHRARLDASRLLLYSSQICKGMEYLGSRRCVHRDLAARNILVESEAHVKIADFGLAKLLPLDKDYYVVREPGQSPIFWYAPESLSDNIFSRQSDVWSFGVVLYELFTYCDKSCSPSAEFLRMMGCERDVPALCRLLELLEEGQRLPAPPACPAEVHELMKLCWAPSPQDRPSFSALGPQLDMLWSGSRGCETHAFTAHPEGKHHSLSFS

As for `CN(c1ncnc2[nH]ccc12)[C@H]1CC[C@H](CS(=O)(=O)N2CCCC(O)(COc3cccc(F)c3)C2)CC1` (stereo partly drawn) [Example 19, 3-[(3-fluorophenoxy)-methyl]-1-[({trans-4-[methyl(7H-pyrrolo[2,3-d]pyrimidin-4-yl)amino]-cyclohexyl}methyl)sulfonyl]-piperidin-3-ol], the IC50 in test [1] is 0.0468 µM; in test [2], 0.0148 µM; in test [3], 0.492 µM.
In the same order, the values of `CC(=O)NCC1CCCN(S(=O)(=O)C[C@H]2CC[C@H](N(C)c3ncnc4[nH]ccc34)CC2)C1` (stereo partly drawn) [Example 20, N-({1-[({trans-4-[methyl-(7H-pyrrolo[2,3-d]-pyrimidin-4-yl)amino]-cyclohexyl}methyl)sulfonyl]-piperidin-3-yl}methyl)-acetamide] are 0.0152 µM, 0.00166 µM and 0.19 µM.
In the same order, the values of `CN(c1ncnc2[nH]ccc12)[C@H]1CC[C@H](CS(=O)(=O)N2CCCC(Cc3ccccn3)C2)CC1` (stereo partly drawn) [Example 21, N-methyl-N-[trans-4-({[3-(pyridin-2-ylmethyl)-piperidin-1-yl]sulfonyl}-methyl)cyclohexyl]-7H-pyrrolo[2,3-d]pyrimidin-4-amine] are 0.033 µM, 0.0113 µM and 0.592 µM.
Take `CN(c1ncnc2[nH]ccc12)[C@H]1CC[C@H](CS(=O)(=O)N2CC[C@H](O)[C@H](O)C2)CC1` [Example 22, (3R,4S)-1-[({trans-4-[methyl(7H-pyrrolo[2,3-d]pyrimidin-4-yl)amino]-cyclohexyl}methyl)sulfonyl]-piperidine-3,4-diol]: the IC50 in test [1] is 0.0325 µM; in test [2], 0.0115 µM; in test [3], 0.138 µM.
In the same order, the values of `CN(c1ncnc2[nH]ccc12)[C@H]1CC[C@H](CS(=O)(=O)N2CCC(C)(O)CC2)CC1` [Example 23, 4-methyl-1-[({trans-4-[methyl(7H-pyrrolo[2,3-d]pyrimidin-4-yl)amino]-cyclohexyl}methyl)sulfonyl]-piperidin-4-ol] are 0.0421 µM, 0.00774 µM and 0.243 µM.
As for `CN(c1ncnc2[nH]ccc12)[C@H]1CC[C@H](CS(=O)(=O)N2CCC(O)(c3ccccc3)CC2)CC1` [Example 24, 1-[({trans-4-[methyl(7H-pyrrolo[2,3-d]pyrimidin-4-yl)amino]cyclohexyl}methyl)-sulfonyl]-4-phenyl-piperidin-4-ol], the half-maximal inhibitory concentration (IC50) in test [1] stood at 0.00742 µM; in test [2] it was 0.00503 µM; in test [3], 0.0374 µM.
For `CN(c1ncnc2[nH]ccc12)[C@H]1CC[C@H](CS(=O)(=O)N2CC[C@H](NC(=O)OC(C)(C)C)C2)CC1` [Example 26, tert-butyl {(3S)-1-[({trans-4-[methyl(7H-pyrrolo[2,3-d]pyrimidin-4-yl)amino]-cyclohexyl}methyl)sulfonyl]-pyrrolidin-3-yl}carbamate], in that order: 0.0484 µM, 0.00144 µM and 0.23 µM.
In the same order, the values of `CN(c1ncnc2[nH]ccc12)[C@H]1CC[C@H](CS(=O)(=O)N2C[C@@H](O)[C@H](c3ccccc3)C2)CC1` [Example 29, (3S,4R)-1-[({trans-4-[methyl(7H-pyrrolo[2,3-d]pyrimidin-4-yl)amino]-cyclohexyl}methyl)sulfonyl]-4-phenylpyrrolidin-3-ol] are 0.015 µM, 0.00522 µM and 0.151 µM.
For `CN(c1ncnc2[nH]ccc12)[C@H]1CC[C@H](CS(=O)(=O)N2CC[C@@H](CO)C2)CC1` [Example 30, {(3R)-1-[({trans-4-[methyl(7H-pyrrolo[2,3-d]pyrimidin-4-yl)amino]-cyclohexyl}methyl)sulfonyl]-pyrrolidin-3-yl}-methanol], in that order: 0.00836 µM, 0.00306 µM and 0.112 µM.
In the case of `CN(c1ncnc2[nH]ccc12)[C@H]1CC[C@H](CS(=O)(=O)N2CC[C@H](CO)C2)CC1` [Example 31, {(3S)-1-[({trans-4-[methyl(7H-pyrrolo[2,3-d]pyrimidin-4-yl)amino]-cyclohexyl}methyl)sulfonyl]-pyrrolidin-3-yl}-methanol], the IC50 in test [1] was 0.0144 µM; in test [2], 0.00288 µM; in test [3], 0.2 µM.
For `CN(c1ncnc2[nH]ccc12)[C@H]1CC[C@H](CS(=O)(=O)N2CC[C@H](CC#N)C2)CC1` [Example 32, {(3R)-1-[({trans-4-[methyl(7H-pyrrolo[2,3-d]pyrimidin-4-yl)amino]-cyclohexyl}methyl)sulfonyl]-pyrrolidin-3-yl}-acetonitrile], in that order: 0.0273 µM, 0.00376 µM and 0.355 µM.
In the same order, the values of `CN(c1ncnc2[nH]ccc12)[C@H]1CC[C@H](CS(=O)(=O)N2C[C@H](CO)[C@H](S(C)(=O)=O)C2)CC1` [Example 33, [(3R,4S)-1-[({trans-4-[methyl(7H-pyrrolo[2,3-d]pyrimidin-4-yl)amino]-cyclohexyl}methyl)sulfonyl]-4-(methylsulfonyl)-pyrrolidin-3-yl]methanol] are 0.0322 µM, 0.0104 µM and 0.275 µM.
In the same order, the values of `CN(c1ncnc2[nH]ccc12)[C@H]1CC[C@H](CS(=O)(=O)N2CC[C@@H](F)C2)CC1` [Example 34, N-[trans-4-({[(3R)-3-fluoropyrrolidin-1-yl]sulfonyl}methyl)cyclo-hexyl]-N-methyl-7H-pyrrolo-[2,3-d]pyrimidin-4-amine] are 0.0167 µM, 0.00735 µM and 0.217 µM.
Take `CN(c1ncnc2[nH]ccc12)[C@H]1CC[C@H](CS(=O)(=O)N2CC[C@@H](CC#N)C2)CC1` [Example 35, {(3S)-1-[({trans-4-[methyl(7H-pyrrolo[2,3-d]pyrimidin-4-yl)amino]cyclohexyl}methyl)-sulfonyl]pyrrolidin-3-yl}acetonitrile]: the IC50 in test [1] was 0.0526 µM; in test [2], 0.0111 µM; in test [3], 0.447 µM.
For `CN(c1ncnc2[nH]ccc12)[C@H]1CC[C@H](CS(=O)(=O)N2C[C@@H](O)[C@H](C#N)C2)CC1` [Example 36, (3S,4S)-4-hydroxy-1-[({trans-4-[methyl(7H-pyrrolo[2,3-d]pyrimidin-4-yl)amino]cyclohexyl}methyl)-sulfonyl]pyrrolidine-3-carbonitrile], the IC50 stood at 0.0187 µM in test [1], 0.00535 µM in test [2] and 0.123 µM in test [3].
Consider `CC1CN(S(=O)(=O)C[C@H]2CC[C@H](N(C)c3ncnc4[nH]ccc34)CC2)CCN1C` (stereo partly drawn) [Example 38, N-(trans-4-{[(3,4-dimethylpiperazin-1-yl)-sulfonyl]methyl}cyclo-hexyl)-N-methyl-7H-pyrrolo-[2,3-d]pyrimidin-4-amine], for which the IC50 in test [1] came to 0.126 µM; in test [2], 0.0114 µM; in test [3], 1.92 µM.
In the same order, the values of `CN(c1ncnc2[nH]ccc12)[C@H]1CC[C@@H](CS(=O)(=O)N2CCC[C@H](C#N)C2)CC1` [Example 39, 1-[({cis-4-[methyl(7H-pyrrolo[2,3-d]pyrimidin-4-yl)amino]cyclohexyl}-methyl)sulfonyl]piperidine-3-carbonitrile] are 0.0754 µM, 0.0234 µM and 0.393 µM.
